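In this assay, cells in 96-well plates receive the compound at five concentrations for 48 hours. Endpoints are linearly interpolated between the surrounding concentrations. At the TGI there is no net growth.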
Legend:
Experiment in all cases: NCI tumour cell line growth inhibition, 48 h
DMS 273 small cell lung = system: DMS 273 small cell lung
HOP-18 NSCLC = system: HOP-18 NSCLC
KM20L2 colon = system: KM20L2 colon
M19-MEL melanoma = system: M19-MEL melanoma
P388 leukemia = system: P388 leukemia
P388/ADR leukemia = system: P388/ADR leukemia
SN12K1 renal = system: SN12K1 renal
LXFL 529 NSCLC = system: LXFL 529 NSCLC
RXF-631 renal = system: RXF-631 renal
XF 498 CNS = system: XF 498 CNS

In the case of `Cc1c2ccnc(-c3ccccc3)c2cc2c1[nH]c1ccccc12`, the TGI (DMS 273 small cell lung) is reported as 4.06 µM, the TGI (HOP-18 NSCLC) is reported as 8.67 µM and the TGI (KM20L2 colon) is reported as 6.8 µM. It also gave a TGI (M19-MEL melanoma) of 8.48 µM, a TGI (P388 leukemia) of 5.46 µM and a TGI (P388/ADR leukemia) of 6.08 µM. The TGI (SN12K1 renal) was 5.04 µM.
With `COc1cc2c(cc1OC)C(Cl)C(c1ccc(Cl)cc1)=C2Cl` (stereo unspecified) the TGI (DMS 273 small cell lung) was 41.6 µM, the TGI (HOP-18 NSCLC) was 31.7 µM and the TGI (KM20L2 colon) was 39.5 µM. The TGI (LXFL 529 NSCLC) was 17.5 µM, the TGI (M19-MEL melanoma) was 41.3 µM and the TGI (RXF-631 renal) was 51.7 µM. The TGI (XF 498 CNS) was 9.09 µM.
For `CN(C)c1ccc(C2CC(=O)C(C#N)=C(c3ccccc3)NN2C)cc1` (stereo unspecified), the TGI (HOP-18 NSCLC) was over 100 µM, the TGI (LXFL 529 NSCLC) was over 100 µM and the TGI (RXF-631 renal) was over 100 µM. It also gave a TGI (XF 498 CNS) of 38.3 µM.
Work on `Oc1cc(O)cc(/C=C/c2ccc(O)c(O)c2)c1` yielded a TGI (DMS 273 small cell lung) of 38.9 µM, a TGI (HOP-18 NSCLC) of over 100 µM and a TGI (KM20L2 colon) of 86.1 µM. The TGI (M19-MEL melanoma) was 41.7 µM, the TGI (P388 leukemia) was over 66.9 µM and the TGI (P388/ADR leukemia) was over 67.5 µM. For the same compound, the TGI (SN12K1 renal) was 18.3 µM.
`CN(C)CCNC(=O)c1cccc2nc3c4ccccc4c4ccccc4c3nc12` gave a TGI (DMS 273 small cell lung) of over 100 µM, a TGI (HOP-18 NSCLC) of 20.1 µM and a TGI (KM20L2 colon) of 10.3 µM. For the same compound, the TGI (LXFL 529 NSCLC) was 10.1 µM, the TGI (M19-MEL melanoma) was 3.4 µM and the TGI (XF 498 CNS) was 9.06 µM.
`COc1cc2ccc1-c1cc(ccc1O)CC1c3cc4c(cc3CCN1C)Oc1c(OC)cc3c(c1O4)C(C2)N(C)CC3` (stereo unspecified) showed a TGI (DMS 273 small cell lung) of 3.27 µM, a TGI (KM20L2 colon) of 2.97 µM and a TGI (LXFL 529 NSCLC) of 3.23 µM. The TGI (M19-MEL melanoma) was 3.36 µM and the TGI (XF 498 CNS) was 3.44 µM.

From PubChem BioAssay (NCI)
